Results on four compounds are retold here after ChEMBL document CHEMBL1201862, “PubChem BioAssay data set” (2004).

Test systems include LOX IMVI; SK-OV-3; A549; SF-295; SF-268; HCC 2998; HCT-116; DU-145; NCI/ADR-RES; NCI-H460; EKVX; ACHN; SR; NCI-H23; COLO 205; MCF7; SW-620; RPMI-8226; 786-0; HCT-15.
What all share (assay): NCI-60 cell line screen, 48 h

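Briefly, cells in 96-well plates were exposed to five compound concentrations for 48 h, and endpoints were estimated by linear interpolation. GI50 marks 50% less growth.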 Activity calls are given as the source filed them. Cut-off read from the data, not from the text of the source: active = GI50 up to about 1.1 µM and inactive = higher. Non-standard residues stand in square brackets, D forms with d. Residues, ends and D or L forms follow the SMILES beside them. ξ: configuration not given here. *: point of attachment. dThr(3ξ) = CC(O)[C@@H](N)C(=O)O; dNMeL = CN[C@H](CC(C)C)C(=O)O; OBn = c1ccc(CO*)cc1; ξLac = CC(O)C(=O)O

For `Cc1ccc2c(c1)CC1(Cc3ccccc3C1=O)C2=O` (stereo not given), the GI50 with LOX IMVI, with SK-OV-3, in the assay on A549, with SF-295, in the assay on SF-268 and with HCC 2998 was > 100 µM (inactive) throughout. Further, the GI50 with HCT-116, with DU-145, in the assay with NCI/ADR-RES, in the assay with NCI-H460, in the assay with EKVX and with ACHN was > 100 µM (inactive) each time. The GI50 in the assay on SR, in the assay with NCI-H23, with COLO 205, in the assay on MCF7, in the assay with SW-620 and in the assay on RPMI-8226 was > 100 µM (inactive) each time. Moreover, the figures for the GI50 with 786-0 and in the assay with HCT-15 were > 100 µM (inactive) and greater than 100 µM, respectively.

`O=S(=O)(O)c1cc(S(=O)(=O)O)c2c(/N=N/c3cccc4ccccc34)c(O)ccc2c1`: the GI50 in the assay on LOX IMVI, in the assay on SK-OV-3, in the assay on A549, in the assay on SF-295, in the assay on SF-268 and with HCC 2998 was > 100 µM (inactive) each time. Further, the GI50 with HCT-116, in the assay with DU-145, in the assay with NCI/ADR-RES, with NCI-H460, in the assay with EKVX and in the assay on ACHN was > 100 µM (inactive) each time. For the same compound, the GI50 with SR, in the assay with NCI-H23, with COLO 205, in the assay with MCF7, in the assay with SW-620 and in the assay on RPMI-8226 was > 100 µM (inactive) throughout. In addition, the GI50 with 786-0 was > 100 µM (inactive); in the assay with HCT-15, greater than 100 µM.

On to `CC(=O)OC(C)[C@@H](NC(=O)[C@@H](CC(C)C)N(C)C(=O)[C@@H]1CCCN1C(=O)C(C)O)C(=O)OCc1ccccc1` (stereo not given in full) (H-[ξLac]P[dNMeL][dThr(3ξ)](Ac)-OBn), for which the GI50 in the assay with LOX IMVI, in the assay with SK-OV-3, in the assay with A549, with SF-295, with SF-268 and in the assay with HCC 2998 was > 100 µM (inactive) throughout. Moreover, the GI50 in the assay with HCT-116, in the assay on DU-145, with NCI/ADR-RES, with NCI-H460, in the assay with EKVX and with ACHN was > 100 µM (inactive) throughout. In addition, the GI50 with SR, with NCI-H23, with COLO 205, in the assay with MCF7, with SW-620 and with RPMI-8226 was > 100 µM (inactive) in each case. The results for the GI50 with 786-0 and in the assay with HCT-15 were > 100 µM (inactive) and greater than 100 µM, respectively.

For `CC1=CC(=O)N(n2c(Cc3ccccc3)n[nH]c2=O)C1=O`, the GI50 is 83.4 µM (inactive) in the assay with LOX IMVI; > 100 µM (inactive) in the assay with SK-OV-3; > 100 µM (inactive) in the assay with A549; > 100 µM (inactive) in the assay on SF-295; > 100 µM (inactive) in the assay with SF-268; > 100 µM (inactive) with HCC 2998. Besides, the GI50 in the assay with HCT-116, with DU-145, in the assay with NCI/ADR-RES, in the assay on NCI-H460, in the assay with EKVX and in the assay with ACHN was > 100 µM (inactive) throughout. Moreover, the GI50 with SR is 72.6 µM (inactive); in the assay with NCI-H23, > 100 µM (inactive); in the assay with COLO 205, > 100 µM (inactive); in the assay with MCF7, > 100 µM (inactive); in the assay on SW-620 it was 83.9 µM (inactive); in the assay on RPMI-8226 it was 52 µM (inactive). Also, the GI50 is > 100 µM (inactive) in the assay with 786-0 and greater than 100 µM with HCT-15.
